Values quoted from earlier work in patent US8466198B2, “Compositions comprising creatine salts and methods of use thereof” (priority 2008, dated 2013).

For CN(CC(=O)O)C(=N)N [Creatine], the “average gain in athletic performance” value (creatine ingestion, depending on the measured variable) is listed as 10 to 15%.

For CN(CC(=O)O)C(=N)N.O [creatine monohydrate], the “increase in body mass” value (first week of loading) is listed as 1-2 kilograms, the “improvement of maximal power/strength” value (short term supplementation) is listed as 5-15% and the “improvement of single effort sprint performance” value (short term supplementation) is listed as 1-5%. For the same molecule, the “improvement of work performed during exercise of maximal effort muscle contractions” value (short term supplementation) was 5-15% and the “improvement of work performed during repetitive sprint performance” value (short term supplementation) was 5-15%.
